Reference: PubChem BioAssay (NCI)
Where “and” joins values, the source holds several entries; their conditions need not be identical. Equal entries are not always repeated.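 Following 48 hours of exposure in 96-well plates, responses at five concentrations were used to interpolate endpoints linearly. Abbreviation: GI50, concentration required for 50% inhibition of growth. TGI marks complete inhibition of growth.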

Key:
Experiment in all cases: growth of human tumour cells (NCI), 48 h
ACHN renal = test system: ACHN renal
BT-549 breast = test system: BT-549 breast
CCRF-CEM leukemia = test system: CCRF-CEM leukemia
MCF7 breast = test system: MCF7 breast
MDA-MB-231 breast = test system: MDA-MB-231 breast
MDA-MB-435 = test system: MDA-MB-435
OVCAR-5 ovarian = test system: OVCAR-5 ovarian
PC-3 prostate = test system: PC-3 prostate
SK-MEL-5 melanoma = test system: SK-MEL-5 melanoma
TK-10 renal = test system: TK-10 renal

Row | SMILES | GI50 (ACHN renal) [µM] | TGI (ACHN renal) [µM] | GI50 (BT-549 breast) [µM] | TGI (BT-549 breast) [µM] | GI50 (CCRF-CEM leukemia) [µM] | TGI (CCRF-CEM leukemia) | GI50 (MCF7 breast) [µM] | TGI (MCF7 breast) [µM] | GI50 (MDA-MB-231 breast) [µM] | TGI (MDA-MB-231 breast) [µM] | GI50 (MDA-MB-435) [µM] | TGI (MDA-MB-435) [µM] | GI50 (OVCAR-5 ovarian) [µM] | TGI (OVCAR-5 ovarian) [µM] | GI50 (PC-3 prostate) [µM] | TGI (PC-3 prostate) [µM] | GI50 (SK-MEL-5 melanoma) [µM] | TGI (SK-MEL-5 melanoma) | GI50 (TK-10 renal) [µM] | TGI (TK-10 renal) [µM]
1 | CCSc1nc(SCC)c2c(-c3ccc(OC)c(OC)c3)c(C#N)c(SCC)nc2n1 | 17.8 | 38 | 23.5 | > 100 | 83.7 | > 100 µM | 14.8 | > 100 | 13 | 42 | 18.7 | 57.8 | 18.8 | 47.7 | 26.6 | > 100 | 26.6 | 78.8 µM | 17.5 | 53.3
2 | CCc1ccc2c(c1)C(=O)c1c-2n(CCCN=[N+]=[N-])c(=O)c2cc(OC)c(OC)cc12 | 42.2 | > 100 | 76.5 | > 100 | > 100 | > 100 µM | 91.7 | > 100 | > 100 | > 100 | > 100 | > 100 | > 100 | > 100 | > 100 | > 100 | > 100 | > 100 µM | 44.2 | > 100
3 | CC(=O)[O][Sn]([CH2]c1ccccc1)([CH2]c1ccccc1)[CH2]c1ccccc1 | > 10 | > 10 | > 10 | > 10 | > 4.58 | > 6.27 µM | > 10 | > 10 | > 9.02 | > 10 | > 7 | > 10 | > 10 | > 10 | > 7.52 | > 10 | 4.15 | > 6.51 µM | > 3.8 | > 5.43
4 | COc1ccc(C2=C(c3ccc(OC)c(OC)c3)C(=O)N3CCCC3C2)cc1 (stereo not given) | 34 | > 100 | > 71.2 | > 100 | 8.03 | > 100 µM | 31.8 | > 100 | 22 | > 100 | 25.7 | > 100 | > 100 | > 100 | 9.73 | > 100 | 9.03 | > 72.6 µM | 76.2 | > 100
5 | O=[N+]([O-])c1ccc(N2CCC(CCCC3CCN(c4ccc([N+](=O)[O-])cc4[N+](=O)[O-])CC3)CC2)c([N+](=O)[O-])c1 | – | 35.4 | – | 71.8 | – | 35.9 µM | – | 28.3 | – | 36 | – | 26.8 | – | 45.7 | – | 33.7 | – | 30.7 µM | – | 32.7
6 | Nc1ccccc1C#C/C=C\C#Cc1cccc(O)c1 | 2.64 | 18.8 | 7.12 | 25.8 | 8.12 | > 44 µM | 0.918 | 11.2 | 2.29 | 14.1 | 1.5 | 4.12 | 7.64 | 23 | 6.5 | 42.7 | 2.47 | 14.5 µM | 8.73 | 29.7
7 | C[C@]12CC[C@@H]3c4ccc(O)cc4CC[C@H]3[C@@H]1Cc1cnc(N)nc12 | 21.1 | 51.3 | 18.7 | 53.2 | 15.3 | 40 µM | 18.8 | 47.7 | 13.7 | 32.8 | 16.2 | 43.5 | 28.9 | 76.1 | 15.7 | 35.9 | 12.8 | 26.1 µM | 18.9 | 42.7
8 | CC1=C(CCC(C)NCc2ccc(OCCCN3CCCCC3)cc2)C(C)(C)CCC1 (stereo not given) | 1.69 | 3.17 | 2.08 | 3.89 | 1.54 | 4.7 µM | 0.286 | 1.17 | 1.02 | 2.73 | 0.216 | 0.528 | 1.91 | 4.11 | 1.54 | 3.42 | 1.68 | 3.06 µM | 1.69 | 3.19
9 | CN(C)c1ccc(C(=NO)c2ccc(N(C)C)cc2)cc1 | 8.43 | > 100 | 7.34 | > 100 | 3.27 | > 100 µM | 1.71 | > 100 | 4.85 | > 100 | 0.277 | 1.92 | 15.1 | > 100 | 18.1 | > 100 | 1.57 | 4.74 µM | 7.47 | 98.6
10 | O=c1c(O)c(-c2ccc(O)c(O)c2)oc2cc(O)cc(O)c12 | 15.6 | > 100 | 13.3 | 77.7 | 10.7 | > 100 µM and 87.7 µM | 7.95 | > 100 | 9.36 | > 100 | 5.08 | > 100 | 30.2 | > 100 | 18.7 | > 100 | 9.24 | 44 µM and > 100 µM | 49.4 | > 100
11 | COC(=O)C1=C(C)NC(C)=C(C(=O)OCC(C)C)C1c1ccccc1[N+](=O)[O-] (stereo not given) | 2.22 | 10.6 | 5.06 | 17.1 | 2.45 | 11.3 µM | 3.58 | 16.1 | 4.04 | 17.1 | 4.25 | 17.6 | 7.52 | 22.5 | 3.54 | 16.9 | 2.72 | 10.1 µM | 4.11 | 13
12 | CC1=C(C(=O)N(C)c2ccc(Cl)c(C(=O)OC(C)C)c2)SCCO1 | – | > 100 | – | > 100 | – | > 100 µM | – | > 100 | – | > 100 | – | > 100 | – | > 100 | – | > 100 | – | > 100 µM | – | > 100
13 | Cc1ccc(-c2nc3nc(-c4ccccc4)nc(N4CCNCC4)c3o2)cc1 | 0.495 | 1.07 | 1.69 | 3.13 | 0.276 | 0.729 µM | 0.401 | 1.73 | 0.226 | 0.537 | 1.58 | 3.04 | 1.31 | 2.74 | 0.947 | 2.46 | 1.65 | 3.04 µM | 0.747 | 1.71
